According to patent US7713994B2 (Wyeth LLC, priority 2005, dated 2010):
Read-outs that look alike come from different tables or passages of the source.

How the values were obtained:
MCF-7 = test: Cytotoxicity assay (SRB), MCF-7; type: cell-based; conditions: Homo sapiens, MCF7, 72 h, MCF-7 cells, SRB, read-out: In Vitro Cellular Activity IC50 MCF-7
Outline: (§1)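 BT474 (12000 cells/well) was treated for 6 days, whereas HCT-116 (4000), LoVo (6000) and MCF-7 (6000) were treated for 3 days, all in RPMI 1640 containing 5% FBS. Surviving-cell percentage came from SRB dye binding measured at 540 nm.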

BT474 = test: Cytotoxicity assay (SRB), BT474; type: cell-based
Outline: as §1

LoVo = test: Cytotoxicity assay (SRB), LoVo; type: cell-based; conditions: Homo sapiens, LoVo, 72 h, LoVo cells, SRB, read-out: In Vitro Cellular Activity IC50 LOVO
Outline: as §1

cyclin B/CDK1 enzyme = biological target: T1, cyclin B/CDK1 enzyme (Homo sapiens, UniProt P06493); test: CDK1 ELISA kinase assay (phospho-Rb ser 795 detection); type: biochemical
T1 construct: purchased New England BioLabs; host or cells: Sf9 insect cells, recombinant baculovirus
T1 sequence (P06493 whole entry): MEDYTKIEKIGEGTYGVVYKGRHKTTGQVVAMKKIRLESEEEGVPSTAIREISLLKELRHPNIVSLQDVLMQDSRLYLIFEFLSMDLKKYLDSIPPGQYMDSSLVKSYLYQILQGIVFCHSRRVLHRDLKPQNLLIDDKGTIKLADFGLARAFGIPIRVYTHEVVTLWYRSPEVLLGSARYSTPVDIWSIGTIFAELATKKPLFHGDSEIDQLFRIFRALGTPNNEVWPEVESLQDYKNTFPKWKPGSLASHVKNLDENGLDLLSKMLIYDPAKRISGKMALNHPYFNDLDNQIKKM
T1 sequence (P14635 whole entry partner): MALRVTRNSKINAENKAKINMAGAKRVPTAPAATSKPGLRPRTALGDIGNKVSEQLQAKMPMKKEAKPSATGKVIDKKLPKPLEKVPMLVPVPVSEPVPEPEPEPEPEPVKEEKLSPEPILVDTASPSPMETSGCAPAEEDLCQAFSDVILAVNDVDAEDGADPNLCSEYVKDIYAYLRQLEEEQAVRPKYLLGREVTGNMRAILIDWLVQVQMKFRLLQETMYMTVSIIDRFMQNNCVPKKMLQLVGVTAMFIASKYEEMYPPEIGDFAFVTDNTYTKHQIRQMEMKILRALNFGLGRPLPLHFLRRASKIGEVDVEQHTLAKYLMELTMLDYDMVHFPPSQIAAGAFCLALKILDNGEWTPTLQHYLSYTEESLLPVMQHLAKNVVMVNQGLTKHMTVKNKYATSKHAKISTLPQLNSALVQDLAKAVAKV
Procedure: • 1. High-binding ELISA microtiter plates (Costar) were coated with 40 μl of the kinase substrate (GST fusion of C-terminal fragment of the retinoblastoma susceptibility gene product) diluted to 10 μg/ml in tris-buffered saline (TBS), overnight at 4° C. • 2. Non-specific binding sites were blocked for 1 hour at 4° C. with Superblock in TBS (Pierce), and the plates rinsed with water. • 3. For the screen, 1.5 μl of test compound (200 μg/ml stock in 20% DMSO/20 mM HEPES, pH 7.5) was added to each well. Final dose of the test compound in the assay was 10 ug/ml. […] The kinase reaction (30 μl) was dispensed into each well. Reactions contained 200 μM ATP, 0.5 mg/ml bovine serum albumin (BSA; Sigma), and 0.5 μl partially purified cyclin D1/cdk 4 enzyme*. The enzyme complex is expressed in insect cells (Sf9) infected with recombinant baculovirus and partially purified using ammonium sulfate fractionation. Reaction volumes were adjusted to 30 μl with kinase assay buffer (50 mM HEPES, pH 7.5, 10 mM MgCl2, 5% glycerol, 10 mM 2-mercaptoethanol). • *: For CDK2 assay, 1.0 μl cyclin E/CDK2 enzyme (diluted 1:1000 in kinase assay buffer) was used. The enzyme is isolated from insect cells (Sf9) infected with recombinant baculovirus and partially purified using ammonium sulfate fractionation. For CDK1 assay, 0.08 μl cyclin B/CDK1 enzyme [New England BioLabs; the enzyme is isolated from insect cells (Sf9) infected with recombinant baculovirus carrying human cdc 2 and human cyclin B] was used.
[…] • 5. Plates were incubated at 30° C. for 1 hour. • 6. The reaction mixture was removed by aspiration and replaced with 250 μl TBS containing 0.1% Tween-20 and 5% nonfat dry milk (blocking buffer). The plates were incubated at 4° C. for 1 hour. • 7. The blocking buffer was removed and replaced with 50 μl of the primary antibody [anti-phospho-Rb ser 795 (New England BioLabs) diluted 1:1000 in blocking buffer]. Incubation was at 4° C. for 16-20 hours. • 8. The wells were rinsed 3 times with 250 μl of TBS containing 0.1% Tween-20 followed by the addition of 50 μl of secondary antibody [anti-rabbit IgG conjugated to horseradish peroxidase (Amersham Life Science) diluted 1:1000 in blocking buffer]. • 9. After a 1 hour incubation at room temperature, the wells were rinsed 3 times with 250 μl of TBS/0.1% Tween 20. • 10. TMB (3,3′,5,5′-tetramethylbenzidine dihydrochloride) substrate solution (100 μl; Pierce) was added to each well and the color development reaction allowed to proceed 5-10 minutes at room temperature with shaking. The reaction was stopped by the addition of 2N sulfuric acid (100 μl) and the absorbance values read at 450 nm in a microplate reader (Molecular Devices). Analysis of Results: • 1. The percentage of the absorbance value in wells containing the test compound relative to control wells (no test agent) was determined. • 2. IC50 values of selected compounds were determined from inhibition curves, after subtracting background values (no substrate).

HCT-116 = test: Cytotoxicity assay (SRB), HCT-116; type: cell-based; conditions: Homo sapiens, HCT-116, 72 h, HCT116 cells, SRB, read-out: In Vitro Cellular Activity IC50 HCT116
Outline: as §1

cyclin D1/cdk 4 enzyme = biological target: T2, cyclin D1/cdk 4 enzyme (Homo sapiens, UniProt P11802); test: CDK4 ELISA kinase assay (phospho-Rb ser 795 detection); type: biochemical
T2 construct: made in house; host or cells: Sf9 insect cells, recombinant baculovirus
T2 sequence (P11802 whole entry, species assumed): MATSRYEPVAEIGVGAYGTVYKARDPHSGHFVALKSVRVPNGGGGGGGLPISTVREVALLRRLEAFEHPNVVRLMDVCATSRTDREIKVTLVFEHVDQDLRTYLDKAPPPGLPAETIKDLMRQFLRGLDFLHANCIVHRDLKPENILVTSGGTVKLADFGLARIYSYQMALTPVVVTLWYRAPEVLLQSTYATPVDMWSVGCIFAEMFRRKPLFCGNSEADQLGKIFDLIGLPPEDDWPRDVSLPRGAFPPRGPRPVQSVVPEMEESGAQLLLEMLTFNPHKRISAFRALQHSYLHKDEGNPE
T2 sequence (P24385 whole entry partner, species assumed): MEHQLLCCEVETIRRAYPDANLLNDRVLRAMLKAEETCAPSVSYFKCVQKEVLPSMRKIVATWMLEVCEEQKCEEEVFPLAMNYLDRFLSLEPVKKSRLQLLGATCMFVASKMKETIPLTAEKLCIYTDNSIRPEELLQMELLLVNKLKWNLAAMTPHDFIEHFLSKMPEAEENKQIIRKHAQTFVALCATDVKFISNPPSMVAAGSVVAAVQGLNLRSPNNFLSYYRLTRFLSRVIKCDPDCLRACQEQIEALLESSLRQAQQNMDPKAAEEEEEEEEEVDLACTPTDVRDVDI
Outline: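 Screening was done at 10 ug/ml compound. Each partially purified cyclin/CDK complex, produced in baculovirus-infected Sf9 cells, phosphorylated a coated GST-Rb C-terminal fragment with 200 μM ATP, and Ser795 phosphorylation was quantified by HRP-ELISA at 450 nm.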

[1] = Homo sapiens, BT-474, 144 h, BT474 cells, SRB, 6 days; read-out: In Vitro Cellular Activity IC50 BT474
[2] = In Vitro Enzyme Assays, read-out: CDK1 IC50
[3] = Homo sapiens, BT-474, 144 h, BT474 cells, 6 days, SRB; read-out: In Vitro Cellular Activity IC50 BT474
[4] = In Vitro Enzyme Assay, cyclin D1/cdk 4, read-out: CDK4 IC50

Compound | IC50 (MCF-7; three days) | IC50 (BT474; [1]) | IC50 (LoVo; three days) | IC50 (cyclin B/CDK1 enzyme; [2]) | IC50 (HCT-116; three days) | IC50 (cyclin D1/cdk 4 enzyme; In Vitro Enzyme Assays, 200 μM ATP, read-out: CDK4 IC50) | IC50 (BT474; [3]) | IC50 (LoVo; 3 days) | IC50 (cyclin D1/cdk 4 enzyme; [4]) | IC50 (cyclin B/CDK1 enzyme; In Vitro Enzyme Assay, cyclin B/CDK1, read-out: CDK1 IC50) | IC50 (MCF-7; 3 days) | IC50 (HCT-116; 3 days)
O=C1NC(=O)c2ccc(N3CCCCC3)cc2/C1=C/Nc1ccc(CN2CCCCC2)cc1 [Example 118, (4Z)-6-Piperidin-1-yl-4-({[4-(piperidin-1-ylmethyl)phenyl]amino}methylene)isoquinoline-1,3(2H,4H)-dione] | 4.4 µM | 4 µM | 3.2 µM | > 50 µM | 2.7 µM |  |  |  |  |  |  | 
C[C@@H]1CN(c2ccc(N/C=C3\C(=O)NC(=O)c4ccc(I)cc43)cc2)C[C@H](C)N1 [Example 216, (4Z)-4-({[4-(3,5-Dimethylpiperazin-1-yl)phenyl]amino}methylene)-6-iodoisoquinoline-1,3(2H,4H)-dione] |  | 1.1 µM | 1.3 µM | > 50 µM |  |  |  |  |  |  |  | 
CC1CN(c2ccc(N/C=C3\C(=O)NC(=O)c4ccc(I)cc43)cc2)CCN1C (stereo not shown) [Example 248, (4Z)-4-({[4-(3,4-Dimethylpiperazin-1-yl)phenyl]amino}methylene)-6-iodoisoquinoline-1,3(2H,4H)-dione] |  | 3 µM | 2.8 µM | > 50 µM |  | 2.7 µM |  |  |  |  |  | 
CN1CCN(c2ccc(NC=C3C(=O)NC(=O)c4ccc(-c5ccccc5)cc43)cc2)CC1 [Example 831, 4-{[4-(4-Methyl-piperazin-1-yl)-phenylamino]-methylene}-6-phenyl-4H-isoquinoline-1,3-dione] |  |  |  |  |  |  | 3.2 µM | 2.8 µM | 0.19 µM | > 50 µM |  | 
O=C1NC(=O)c2ccc([N+](=O)[O-])cc2/C1=C/Nc1ccc(CN2CCCCC2)cc1 [compound 42] | 7.6 µM | 4 µM | 5.9 µM | > 50 µM | 3 µM |  |  |  |  |  |  | 
COc1cccc(-c2ccc3c(c2)C(=CNCc2ccc(S(N)(=O)=O)cc2)C(=O)NC3=O)c1 [Example 737, 4-({[6-(3-Methoxy-phenyl)-1,3-dioxo-2,3-dihydro-1H-isoquinolin-4-ylidenemethyl]-amino}-methyl)-benzenesulfonamide] |  |  |  |  |  |  | > 50 µM | 15.3 µM | 6 µM |  | 12.7 µM | 17.7 µM
Cc1cccc(-c2ccc3c(c2)C(=CNCc2ccc(S(N)(=O)=O)cc2)C(=O)NC3=O)c1 [Example 753, 4-{[(1,3-Dioxo-6-m-tolyl-2,3-dihydro-1H-isoquinolin-4-ylidenemethyl)-amino]-methyl}-benzenesulfonamide] |  |  |  |  |  |  | 28.9 µM | 23.4 µM | 3.4 µM |  | 13.3 µM | 14.4 µM
O=C1NC(=O)c2ccc(-c3csc4ccccc34)cc2C1=CNCc1ccc(O)c(O)c1 [Example 645, 6-Benzo[b]thiophen-3-yl-4-[(3,4-dihydroxy-benzylamino)-methylene]-4H-isoquinoline-1,3-dione] |  |  |  |  |  |  | 15.5 µM | 7.2 µM | 2.2 µM |  | 8.8 µM | 9 µM
CN1CCN(c2ccc(NC=C3C(=O)NC(=O)c4ccc(-c5ccccc5Cl)cc43)cc2)CC1 [Example 691, 6-(2-Chloro-phenyl)-4-{[4-(4-methyl-piperazin-1-yl)-phenylamino]-methylene}-4H-isoquinoline-1,3-dione] |  |  |  |  |  |  | 3 µM | 2.2 µM | 8.3 µM |  | 2.8 µM | 1.3 µM
CN1CCN(c2ccc(NC=C3C(=O)NC(=O)c4ccc(-c5ccc(Cl)cc5)cc43)cc2)CC1 [Example 689, 6-(4-Chloro-phenyl)-4-{[4-(4-methyl-piperazin-1-yl)-phenylamino]-methylene}-4H-isoquinoline-1,3-dione] |  |  |  |  |  |  | 3.4 µM | 6.7 µM | 4.7 µM |  | 3.8 µM | 3 µM
CN1CCN(c2ccc(NC=C3C(=O)NC(=O)c4ccc(C=Cc5ccc(N)cc5)cc43)cc2)CC1 [Example 725, 6-[2-(4-Amino-phenyl)-vinyl]-4-{[4-(4-methyl-piperazin-1-yl)-phenylamino]-methylene}-4H-isoquinoline-1,3-dione] |  |  |  |  |  |  | 19.5 µM | 29.9 µM | 2.9 µM |  | 29.3 µM | 8 µM
NS(=O)(=O)c1ccc(CNC=C2C(=O)NC(=O)c3ccc(-c4cc5ccccc5o4)cc32)cc1 [Example 634, 4-{[(6-Benzofuran-2-yl-1,3-dioxo-2,3-dihydro-1H-isoquinolin-4-ylidenemethyl)-amino]-methyl}-benzenesulfonamide] |  |  |  |  |  |  | 47.8 µM | 8.5 µM | 9.9 µM |  | > 50 µM | 19.1 µM
Cc1cccc(-c2ccc3c(c2)C(=CNc2ccc(CC#N)cc2)C(=O)NC3=O)c1 [Example 716, {4-[(1,3-Dioxo-6-m-tolyl-2,3-dihydro-1H-isoquinolin-4-ylidenemethyl)-amino]-phenyl}-acetonitrile] |  |  |  |  |  |  | > 50 µM | > 50 µM | 9.3 µM |  | 27.2 µM | > 50 µM
Cc1ccc(-c2ccc3c(c2)C(=CNCc2ccc(S(N)(=O)=O)cc2)C(=O)NC3=O)cc1 [Example 752, 4-{[(1,3-Dioxo-6-p-tolyl-2,3-dihydro-1H-isoquinolin-4-ylidenemethyl)-amino]-methyl}-benzenesulfonamide] |  |  |  |  |  |  | 33.3 µM | 33.4 µM | 1.3 µM |  | 18.5 µM | 14.8 µM
N#CCc1ccc(NC=C2C(=O)NC(=O)c3ccc(-c4ccc(F)cc4)cc32)cc1 [Example 704, (4-{[6-(4-Fluoro-phenyl)-1,3-dioxo-2,3-dihydro-1H-isoquinolin-4-ylidenemethyl]-amino}-phenyl)-acetonitrile] |  |  |  |  |  |  | 26.4 µM | > 50 µM | 7 µM |  | 28.6 µM | > 50 µM
NS(=O)(=O)c1ccc(CNC=C2C(=O)NC(=O)c3ccc(-c4ccc5ccccc5c4)cc32)cc1 [Example 632, 4-{[(6-Naphthalen-2-yl-1,3-dioxo-2,3-dihydro-1H-isoquinolin-4-ylidenemethyl)-amino]-methyl}-benzenesulfonamide] |  |  |  |  |  |  | > 50 µM | 44.6 µM | 3.1 µM |  | 17.3 µM | > 50 µM
